Reference: paper PMC5011342, “A high throughput drug screening assay to identify compounds that promote oligodendrocyte differentiation using acutely dissociated and purified oligodendrocyte precursor cells” (BMC Research Notes, 2016)
Where two headings read alike, the source gives them in different places.

Columns and labels:
[1] = test system: expanded OPCs; assay: cells; conditions: for viability at 0.1 µM / viability at 1 µM / viability at 10 µM: Rattus norvegicus, 72 h
Outline: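 Toxicity screen: compounds added at 0.1, 1 and 10 µM to PDGF-AA-expanded OPCs in 96-well plates, 3-day incubation at 37 °C, 10% CO2, then alamarBlue 1:10 for 4 h with fluorescence readout. Results set screening doses of 10/2, 2/0.4 or 0.4/0.08 µM.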

[2] = test system: acutely dissociated and purified rat OPCs; assay: Acute OL differentiation assay (MBP expression/cell, immunofluorescent image quantification); format: cell-based; conditions: sheet "All OLga data"; for activation at 2 µM / activation at 10 µM / activation at 0.4 µM / activation at 0.08 µM: Rattus norvegicus
Outline: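 This acute differentiation assay used purified rat OPCs from postnatal day 6–7 pups, seeded into PDL/laminin-coated 96-well plates in differentiation medium lacking PDGF and FGF. Compounds were applied in quadruplicate after a 1–2 h preincubation at 37 °C, 10 % CO2, with 0.1 % DMSO negative and 40 ng/ml T3 positive controls in eight wells. After fixation on DIV4, anti-MBP immunofluorescence images yielded MBP expression/cell.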

[3] = read-out: 0.1 µM (% DMSO), alamarBlue viability of expanded OPCs, compound at 0.1 µM, sheet All Tox data
[4] = read-out: 1 µM (% DMSO), alamarBlue viability of expanded OPCs, compound at 1 µM, sheet All Tox data
[5] = read-out: 10 µM (% DMSO), alamarBlue viability of expanded OPCs, compound at 10 µM, sheet All Tox data
[6] = 2 uM test compound, relative to quetiapine, read-out: OL differentiation, 2 uM (% Quet)
[7] = 10 uM test compound, relative to quetiapine, read-out: OL differentiation, 10 uM (% Quet)
[8] = read-out: 0.1 µM (% DMSO), alamarBlue viability, NCC library compound at 0.1 µM, sheet "All Tox data"
[9] = read-out: 1 µM (% DMSO), alamarBlue viability, NCC library compound at 1 µM, sheet "All Tox data"
[10] = read-out: 10 µM (% DMSO), alamarBlue viability, NCC library compound at 10 µM, sheet "All Tox data"
[11] = test compound at 0.4 uM, NCC library screen, relative to quetiapine, read-out: 0.4 uM (% Quet)
[12] = test compound at 2 uM, NCC library screen, relative to quetiapine, read-out: 2 uM (% Quet)
[13] = test compound at 10 uM, NCC library screen, relative to quetiapine, read-out: 10 uM (% Quet)
[14] = 0.4 uM test compound, relative to quetiapine, read-out: OL differentiation, 0.4 uM (% Quet)
[15] = alamarBlue viability of expanded OPCs, compound at 0.1 µM, relative to DMSO control
[16] = alamarBlue viability of expanded OPCs, compound at 1 µM, relative to DMSO control
[17] = alamarBlue viability of expanded OPCs, compound at 10 µM, relative to DMSO control
[18] = 0.08 uM test compound, relative to quetiapine, read-out: OL differentiation, 0.08 uM (% Quet)

SMILES	viability at 0.1 µM [1, 3]	viability at 1 µM [1, 4]	viability at 10 µM [1, 5]	activation at 2 µM [2, 6]	activation at 10 µM [2, 7]	viability at 0.1 µM [1, 8]	viability at 1 µM [1, 9]	viability at 10 µM [1, 10]	activation at 2 µM [2, 12]	activation at 10 µM [2, 13]	also measured
COc1ccc(/C=C/C(=O)Nc2ccccc2C(=O)O)cc1OC [Tranilast]	90.5%	90%	85.8%	5.9%	-18.5%	–	–	–	–	–	–
O=c1n(CCCN2CCN(c3cccc(Cl)c3)CC2)nc2ccccn12 [Trazodone]	90.8%	78.9%	84.9%	-7.5%	55%	–	–	–	–	–	–
O=C(O[C@H]1[C@H](Oc2ccccc2COC(=O)C2(O)C=CCCC2=O)O[C@H](CO)[C@@H](O)[C@@H]1O)c1ccccc1 (stereo partly drawn) [Tremulacin]	–	–	–	–	–	86.6%	85.4%	20.7%	-176%	–	activation at 0.4 µM [2, 11]: -46.7%
CC1(C)O[C@@H]2C[C@H]3[C@@H]4CCC5=CC(=O)C=C[C@]5(C)[C@@]4(F)[C@@H](O)C[C@]3(C)[C@]2(C(=O)CO)O1 [Triamcinolone Acetonide]	–	–	–	–	–	133%	127%	127%	-1.9%	1.9%	–
Nc1nc(N)c2nc(-c3ccccc3)c(N)nc2n1 [Triamterene]	–	–	–	–	–	94.9%	96.5%	95.3%	0.9%	-18.8%	–
CSc1nc2cc(Cl)c(Oc3cccc(Cl)c3Cl)cc2[nH]1 [Triclabendazole]	96.9%	131%	11.1%	-46.6%	–	–	–	–	–	–	activation at 0.4 µM [2, 14]: -13.1%
Oc1cc(Cl)ccc1Oc1ccc(Cl)cc1Cl [Triclosan]	–	–	–	–	–	–	–	–	–	–	0.1 µM (% DMSO) [1, 15]: 100.2 % DMSO; 1 µM (% DMSO) [1, 16]: 117.5 % DMSO; 10 µM (% DMSO) [1, 17]: 9.2 % DMSO; activation at 0.4 µM [2, 11]: 8.6%
OC(CCN1CCCCC1)(c1ccccc1)C1CCCCC1 (stereo not drawn) [Trihexyphenidyl]	–	–	–	–	–	–	–	–	–	–	0.1 µM (% DMSO) [1, 15]: 90.6 % DMSO; 1 µM (% DMSO) [1, 16]: 84.6 % DMSO; 10 µM (% DMSO) [1, 17]: 67.7 % DMSO; activation at 2 µM ([2]; test compound at 2 uM, MBP expression relative to quetiapine, NCC library screen, read-out: 2 uM (% Quet)): -19.1%; activation at 10 µM ([2]; test compound at 10 uM, MBP expression relative to quetiapine, NCC library screen, read-out: 10 uM (% Quet)): -45.6%
N[C@@H](Cc1cc(I)c(Oc2ccc(O)c(I)c2)c(I)c1)C(=O)O [Triiodothyronine]	–	–	–	–	–	–	–	–	-36.3%	-37.8%	0.1 µM (% DMSO) [1, 15]: 237.5 % DMSO; 1 µM (% DMSO) [1, 16]: 217.6 % DMSO; 10 µM (% DMSO) [1, 17]: 207.1 % DMSO
CCC(COC(=O)c1cc(OC)c(OC)c(OC)c1)(c1ccccc1)N(C)C (stereo not drawn) [Trimebutine]	113%	135%	147%	31.4%	-25.8%	–	–	–	–	–	–
COc1cc(Cc2cnc(N)nc2N)cc(OC)c1OC [Trimethoprim]	–	–	–	–	–	–	–	–	-30.5%	-40.8%	0.1 µM (% DMSO) [1, 15]: 93.8 % DMSO; 1 µM (% DMSO) [1, 16]: 89.7 % DMSO; 10 µM (% DMSO) [1, 17]: 86.5 % DMSO
CN(C)CCN(Cc1ccccc1)c1ccccn1 [Tripelennamine]	82.9%	86.1%	80.7%	8.2%	31.1%	–	–	–	–	–	–
CC(C)[C@]12O[C@H]1[C@@H]1O[C@]13[C@]1(O[C@H]1C[C@H]1C4=C(CC[C@@]13C)C(=O)OC4)[C@@H]2O [Triptolide]	73.9%	13.2%	13.7%	–	–	–	–	–	–	–	activation at 0.08 µM [2, 18]: 3.9%; activation at 0.4 µM [2, 14]: -23.3%
CN1[C@@H]2CC[C@H]1C[C@@H](OC(=O)c1c[nH]c3ccccc13)C2 [Tropisetron]	98.4%	90.9%	82.5%	37.9%	16.9%	–	–	–	–	–	–
COc1cc(C(=O)NC2CCCNC2)cc(OC)c1OC (stereo not drawn) [Troxipide]	102%	115%	109%	18%	-6.8%	–	–	–	–	–	–
c1ccc2c3c([nH]c2c1)CNCC3 [Tryptoline]	–	–	–	–	–	103%	92.4%	62.6%	-12.9%	-20.7%	–
c1ccc2c(c1)CCCC2C1=NCCN1 (stereo not drawn) [Tyzine]	–	–	–	–	–	–	–	–	-6%	0.3%	0.1 µM (% DMSO) [1, 15]: 181.2 % DMSO; 1 µM (% DMSO) [1, 16]: 186.3 % DMSO; 10 µM (% DMSO) [1, 17]: 187.5 % DMSO
CC(C)C[C@H](NC(=O)[C@@H](O)[C@H](N)Cc1ccccc1)C(=O)O [Ubenimex]	–	–	–	–	–	112%	112%	123%	-3.1%	9.5%	–
COc1ccccc1N1CCN(CCCNc2cc(=O)n(C)c(=O)n2C)CC1 [Urapidil]	84.5%	89.8%	96.2%	24.2%	8.4%	–	–	–	–	–	–
CC(C)[C@H](N)C(=O)OCCOCn1cnc2c(=O)[nH]c(N)nc21 [Valaciclovir]	91.4%	98%	102%	-1.4%	-8.7%	–	–	–	–	–	–
Cc1onc(-c2ccccc2)c1-c1ccc(S(N)(=O)=O)cc1 [Valdecoxib]	109%	104%	105%	8.7%	-33.1%	–	–	–	–	–	–
CCCC(CCC)C(=O)O [Valproic Acid]	–	–	–	–	–	97.5%	93.1%	104%	-5.2%	-29.7%	–
CCCCC(=O)N(Cc1ccc(-c2ccccc2-c2nnn[nH]2)cc1)[C@H](C(=O)O)C(C)C [Valsartan]	–	–	–	10.7%	-1%	86.6%	84%	82.9%	–	–	–
CC(=O)O[C@H]1C[C@@H]2CC[C@@H]3[C@H](CC[C@@]4(C)[C@H]3C[C@H]([N+]3(C)CCCCC3)[C@@H]4OC(C)=O)[C@@]2(C)C[C@@H]1N1CCCCC1 [Vecuronium Bromide]	–	–	–	–	–	86.3%	87.7%	78.4%	13.2%	17.7%	–
COc1ccc(C(CN(C)C)C2(O)CCCCC2)cc1 (stereo not drawn) [Venlafaxine]	89.1%	85.2%	76.7%	4%	-26%	–	–	–	–	–	–
Nc1ncnc2c1ncn2[C@@H]1O[C@H](CO)[C@@H](O)[C@@H]1O [Vidarabine]	–	–	–	–	–	90.6%	84.9%	48.9%	-12.9%	–	activation at 0.4 µM [2, 11]: -2.3%
CC[C@]1(O)C[C@@H]2CN(CCc3c([nH]c4ccccc34)[C@@](C(=O)OC)(c3cc4c(cc3OC)N(C)[C@H]3[C@@](O)(C(N)=O)[C@H](O)[C@]5(CC)C=CCN6CC[C@]43[C@@H]65)C2)C1 [Vindesine]	–	–	–	–	–	–	11.4%	9.2%	–	–	activation at 0.08 µM ([2]; test compound at 0.08 uM, NCC library screen, relative to quetiapine, read-out: 0.08 uM (% Quet)): -193%
CCC1=C[C@@H]2CN(C1)Cc1c([nH]c3ccccc13)[C@@](C(=O)OC)(c1cc3c(cc1OC)N(C)[C@H]1[C@@](O)(C(=O)OC)[C@H](OC(C)=O)[C@]4(CC)C=CCN5CC[C@]31[C@@H]54)C2 [Vinorelbine]	–	–	–	–	–	56.8%	34.4%	11.1%	–	–	activation at 0.08 µM [2, 18]: -20.7%; activation at 0.4 µM [2, 14]: -107%
Cl.Cl.O=C(O)COCCN1CCN(C(c2ccccc2)c2ccc(Cl)cc2)CC1 (stereo not drawn) [Virlix]	–	–	–	–	–	–	–	–	–	–	0.1 µM (% DMSO) [1]: 98.3 % DMSO; 1 µM (% DMSO) [1]: 92.7 % DMSO; 10 µM (% DMSO) [1]: 81.0 % DMSO; 2 uM (% Quet) ([2]; test compound at 2 uM, MBP expression relative to quetiapine, NCC library screen): 3.4 % Quet; 10 uM (% Quet) ([2]; test compound at 10 uM, MBP expression relative to quetiapine, NCC library screen): -0.36 % Quet
C[C@@H](c1ncncc1F)[C@](O)(Cn1cncn1)c1ccc(F)cc1F [Voriconazole]	99.1%	97.4%	96%	4.8%	10%	–	–	–	–	–	–
